The record followed here is ChEMBL document CHEMBL1201862, “PubChem BioAssay data set” (2004).

Structures are written as SMILES.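 Grown in 96-well plates, cells were treated for 48 hours with each compound at five concentrations. Insufficient inhibition: endpoint recorded as highest concentration tested. GI50 = concentration required for 50% inhibition of growth.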 Calls of active or inactive are those of the source. Rule as the data show it: active = GI50 up to about 1.1 µM and inactive = higher.

Among the test systems are SNB-78; DMS-273; KM-20L2; XF498; M19-MEL; LXFL 529; DLD-1; RXF 631; HOP-18.
What all share (assay): inhibition of tumour cell growth, NCI panel, 48 h

Consider `COc1ccc(C(=O)O)c(Br)c1OCc1ccccc1`, for which the GI50 with SNB-78, in the assay on DMS-273, with KM-20L2, in the assay on XF498, in the assay on M19-MEL and with LXFL 529 was > 100 µM (inactive) throughout. Also, in the assay with DLD-1, the GI50 is > 100 µM (inactive).

In the case of `CCc1cccc(C)c1NC(=O)CCc1nnc2s/c(=C\c3cccc4ccccc34)c(=O)n12`, the GI50 in the assay on SNB-78 was > 100 µM (inactive); with DMS-273 it was 61.4 µM (inactive); in the assay on KM-20L2 it was > 100 µM (inactive); in the assay with XF498, > 100 µM (inactive); in the assay with M19-MEL it was > 100 µM (inactive); in the assay on LXFL 529, 73.3 µM (inactive). In addition, the GI50 was > 100 µM (inactive) with RXF 631 and 60 µM (inactive) with DLD-1.

Consider `C/C(=N\N(C)C)C(CN(C)C)C(c1ccccc1)c1c(O)c2ccccc2oc1=O` (stereo not given), for which the GI50 in the assay with SNB-78, with DMS-273, in the assay on KM-20L2, with XF498, with LXFL 529 and with DLD-1 was > 100 µM (inactive) throughout.

As for `O=C(Nc1cccc([N+](=O)[O-])c1)C(=O)C(C(=O)c1ccccc1-c1ccccc1)C1OC(=O)c2ccccc21` (stereo not given), the GI50 in the assay on SNB-78 was 23.2 µM (inactive); in the assay on KM-20L2 it was 23.3 µM (inactive); with XF498, 20.4 µM (inactive); with M19-MEL, 15.9 µM (inactive); in the assay on LXFL 529, 13.1 µM (inactive); with RXF 631, 22 µM (inactive). In addition, the GI50 in the assay with DLD-1 is 19.9 µM (inactive).

With `NC(=O)C1C(=O)Oc2cccnc21` (stereo not given), the GI50 in the assay with DMS-273, in the assay with KM-20L2, in the assay on XF498, in the assay on M19-MEL, in the assay on HOP-18 and with DLD-1 was > 100 µM (inactive) in each case.

As for `O=C(/C=C/c1ccccc1)CCN1CCOCC1`, the GI50 in the assay on SNB-78 is 19 µM (inactive); in the assay with DMS-273, 16.9 µM (inactive); in the assay on KM-20L2, 15.9 µM (inactive); with XF498, 14.7 µM (inactive); in the assay on M19-MEL, 14.6 µM (inactive); with LXFL 529, 2.78 µM (inactive). Besides, the GI50 was 17.7 µM (inactive) in the assay with HOP-18 and 9.29 µM (inactive) in the assay on DLD-1.

With `Nc1nc(CC2(O)CCCCC2)cc(-c2ccccc2)n1`, the GI50 in the assay on SNB-78 was > 48.6 µM (inactive); in the assay on DMS-273 it was > 44.9 µM (inactive); with KM-20L2 it was 17.5 µM (inactive); in the assay on M19-MEL, 28.1 µM (inactive); in the assay with LXFL 529, > 66.7 µM (inactive); in the assay on HOP-18, 35.5 µM (inactive). In addition, the GI50 with RXF 631 was 34.4 µM (inactive); in the assay on DLD-1 it was 22.1 µM (inactive).

Consider `CC(=O)NC(CCCN(Cc1ccccc1)C(=O)N(C)N=O)C(=O)NCc1ccccc1` (stereo not given), for which the GI50 in the assay on SNB-78, with DMS-273, in the assay with KM-20L2, in the assay on XF498, with M19-MEL and in the assay with LXFL 529 was > 100 µM (inactive) throughout. Moreover, the GI50 in the assay with RXF 631 and with DLD-1 was > 100 µM (inactive) throughout.

On to `Cc1ccc(SSc2ccc(C)cc2C(=O)O)c(C(=O)O)c1`, for which the GI50 in the assay with SNB-78, in the assay on DMS-273, in the assay with KM-20L2, with M19-MEL, with LXFL 529 and with RXF 631 was > 100 µM (inactive) throughout. For the same compound, the GI50 in the assay with DLD-1 is > 100 µM (inactive).

With `COc1cc2c(c3c1C=CCO3)C(=O)c1ccccc1C2=O`, the GI50 in the assay with SNB-78 is > 100 µM (inactive); with DMS-273 it was 49.1 µM (inactive); with KM-20L2 it was 59.4 µM (inactive); with M19-MEL, 76.6 µM (inactive); in the assay with LXFL 529, 31.2 µM (inactive); in the assay with HOP-18, 83.8 µM (inactive). Further, the GI50 in the assay on DLD-1 was 24.2 µM (inactive).

As to `CCN(CC)CCCC(C)Nc1ccnc2cc(Cl)ccc12` (stereo not given) [CHLOROQUINE PHOSPHATE], the GI50 was 29.9 µM (inactive) with SNB-78; 28.1 µM (inactive) with DMS-273; 14.6 µM (inactive) in the assay with KM-20L2; 17.9 µM (inactive) in the assay on XF498; 57.3 µM (inactive) with LXFL 529; > 100 µM (inactive) in the assay with DLD-1.

For the compound `O/N=C(\C(=N/O)Nc1ccc(-c2ccc(NC(=N/O)/C(=N\O)c3ccccc3)cc2)cc1)c1ccccc1`, the GI50 in the assay on SNB-78 was 30.8 µM (inactive); in the assay on DMS-273, 19.1 µM (inactive); in the assay with KM-20L2 it was 18.9 µM (inactive); with XF498 it was 19.3 µM (inactive); in the assay with M19-MEL, 17.2 µM (inactive); with LXFL 529 it was 15.7 µM (inactive). Further, the GI50 is 13.6 µM (inactive) in the assay with HOP-18 and 22.3 µM (inactive) in the assay with DLD-1.

Consider `C[Si](C)(C)C1(Sc2ccccc2)SCCCS1`, for which the GI50 is 51.8 µM (inactive) in the assay on SNB-78; 35.2 µM (inactive) in the assay on DMS-273; 28.4 µM (inactive) in the assay on XF498; 34 µM (inactive) in the assay with M19-MEL; 34.4 µM (inactive) with LXFL 529; 32 µM (inactive) with DLD-1.

For the compound `COC1CC(OS(=O)(=O)c2ccc(C)cc2)C(OS(=O)(=O)c2ccc(C)cc2)C(COS(=O)(=O)c2ccc(C)cc2)O1` (stereo not given), the GI50 was 5.46 µM (inactive) in the assay with SNB-78; 5.32 µM (inactive) with DMS-273; 12.9 µM (inactive) in the assay with KM-20L2; 7.38 µM (inactive) in the assay with M19-MEL; 5.77 µM (inactive) in the assay on LXFL 529; 2.24 µM (inactive) in the assay on HOP-18. Further, the GI50 in the assay on DLD-1 is 8.75 µM (inactive).

As for `CCSCN(C)c1nc(N(C)C)nc(N(C)C)n1`, the GI50 in the assay on SNB-78 is > 100 µM (inactive); in the assay with DMS-273, 38.6 µM (inactive); with KM-20L2, 55 µM (inactive); with M19-MEL, 64 µM (inactive); with LXFL 529, 45.3 µM (inactive); with HOP-18, > 100 µM (inactive). Moreover, the GI50 in the assay with DLD-1 was 83 µM (inactive).

For `COC(=O)C(C#CCCCCC#CC(NC(=O)OCc1ccccc1)(C(=O)OC)C(F)(F)F)(NC(=O)OCc1ccccc1)C(F)(F)F` (stereo not given), the GI50 in the assay on SNB-78, with KM-20L2, in the assay with M19-MEL, in the assay on LXFL 529, with HOP-18 and with RXF 631 was > 100 µM (inactive) in each case. In the assay on DLD-1, the GI50 is > 100 µM (inactive).

For the compound `CC(=O)[C@@]1(O)CC[C@H]2[C@@H]3C[C@H](C)C4=CC(=O)C=C[C@]4(C)[C@@]3(F)[C@@H](O)C[C@@]21C` [FLUOROMETHOLONE], the GI50 with SNB-78 was > 100 µM (inactive); in the assay on DMS-273, > 100 µM (inactive); with KM-20L2, > 100 µM (inactive); with XF498, > 53.5 µM (inactive); with M19-MEL it was > 100 µM (inactive); in the assay on LXFL 529, > 100 µM (inactive). Also, the GI50 in the assay on RXF 631 and in the assay on DLD-1 was > 100 µM (inactive) each time.

For `Nc1ccc(C(=O)N/C(=C\C=C\c2ccco2)c2nc3c(O)nc(S)nc3[nH]2)cc1`, the GI50 in the assay on SNB-78 is > 100 µM (inactive); in the assay on DMS-273, > 100 µM (inactive); in the assay with KM-20L2, 87.1 µM (inactive); in the assay on XF498, > 100 µM (inactive); in the assay on M19-MEL it was > 100 µM (inactive); with LXFL 529, > 100 µM (inactive). Moreover, the GI50 in the assay with RXF 631 and in the assay with DLD-1 was > 100 µM (inactive) in each case.

Consider `COc1ccc2ccc([Se]c3ccc4ccc(OC)cc4c3)cc2c1`, for which the GI50 with SNB-78 was 53.6 µM (inactive); in the assay with DMS-273, > 100 µM (inactive); with KM-20L2, > 100 µM (inactive); with XF498, 43 µM (inactive); in the assay on M19-MEL, > 100 µM (inactive); in the assay on LXFL 529, > 100 µM (inactive). Besides, the GI50 in the assay on HOP-18 was 28.9 µM (inactive); in the assay on DLD-1, > 100 µM (inactive).

As for `CC1=CC(/C=C(\C)CCCc2ccoc2)C2(OC(=O)C(C)=C2O)[C@H]2C1CC[C@@H]2C` (stereo not given in full), the GI50 with SNB-78 is 30.5 µM (inactive); in the assay on DMS-273, > 10 µM (inactive); in the assay on M19-MEL, 29 µM (inactive); in the assay with LXFL 529, 18.7 µM (inactive); in the assay with HOP-18 it was 14.2 µM (inactive); with DLD-1, 25.5 µM (inactive).

For the compound `O=C1NC2OC(CO)C(O)C(O)C2O1` (stereo not given), the GI50 in the assay with SNB-78, in the assay with DMS-273, in the assay on KM-20L2, in the assay on M19-MEL, in the assay with LXFL 529 and with HOP-18 was > 100 µM (inactive) throughout. Also, the GI50 in the assay on DLD-1 is > 100 µM (inactive).

For the compound `Cc1ccc(C[P+]2(c3ccccc3)CCCCC2)cc1.[O-][Cl+3]([O-])([O-])[O-]`, the GI50 in the assay with SNB-78 is 25.9 µM (inactive); in the assay with DMS-273 it was 35 µM (inactive); with KM-20L2, 31.2 µM (inactive); with XF498, < 0.01 µM (active); with M19-MEL it was 15.7 µM (inactive); with LXFL 529, 14 µM (inactive). The GI50 with DLD-1 was 84.3 µM (inactive).

For `CCC(CO)Nc1nc2c(c(=O)n(C)c(=O)n2C)n1CCO` (stereo not given), the GI50 in the assay with SNB-78 is 4.91 µM (inactive); with DMS-273 it was > 100 µM (inactive); in the assay with KM-20L2, > 100 µM (inactive); in the assay on M19-MEL it was > 100 µM (inactive); with LXFL 529 it was > 100 µM (inactive).

Regarding `CCCCCc1cc(OC(=O)c2c(O)cc(OC)cc2CCCCC)cc(O)c1C(=O)O`, the GI50 was 30.9 µM (inactive) in the assay on SNB-78; 16.1 µM (inactive) in the assay on DMS-273; 18.5 µM (inactive) in the assay with KM-20L2; 15.3 µM (inactive) with XF498; 18.4 µM (inactive) in the assay on M19-MEL; 16.5 µM (inactive) in the assay on LXFL 529. Further, in the assay on DLD-1, the GI50 was 13 µM (inactive).

For the compound `COC(=O)C(=O)C(CC(=O)Nc1cccc(C(F)(F)F)c1)C(=O)OC` (stereo not given), the GI50 in the assay with SNB-78, in the assay with KM-20L2, with M19-MEL, in the assay with LXFL 529 and with DLD-1 was > 100 µM (inactive) in each case.

`CC(C#N)c1cn(S(=O)(=O)c2ccccc2)c2ccccc12` (stereo not given): the GI50 in the assay on DMS-273 is 45.6 µM (inactive); in the assay with KM-20L2 it was 67.8 µM (inactive); with XF498, > 100 µM (inactive); with M19-MEL, 42.5 µM (inactive); in the assay on LXFL 529, 34.9 µM (inactive); in the assay on DLD-1, 55.3 µM (inactive).
